Experimental findings from patent publication US10870647B2, “Imidazopyridine derivative, method for preparing same, and pharmaceutical composition containing same as active ingredient for preventing or treating cancer” (DAEGU-GYEONGBUK MEDICAL INNOVATION FOUNDATION, priority 2016, dated 2020) are described below.

Assay in all cases: Kinase selectivity, scanMAX Kinase assay panel (DiscoverX), % control at 1 uM
Type in all cases: binding

For experiment [1], the target named is T1, scanMAX Kinase assay panel (Homo sapiens, UniProt O95747).
T1 construct: purchased DiscoverX
T1 sequence (O95747 whole entry): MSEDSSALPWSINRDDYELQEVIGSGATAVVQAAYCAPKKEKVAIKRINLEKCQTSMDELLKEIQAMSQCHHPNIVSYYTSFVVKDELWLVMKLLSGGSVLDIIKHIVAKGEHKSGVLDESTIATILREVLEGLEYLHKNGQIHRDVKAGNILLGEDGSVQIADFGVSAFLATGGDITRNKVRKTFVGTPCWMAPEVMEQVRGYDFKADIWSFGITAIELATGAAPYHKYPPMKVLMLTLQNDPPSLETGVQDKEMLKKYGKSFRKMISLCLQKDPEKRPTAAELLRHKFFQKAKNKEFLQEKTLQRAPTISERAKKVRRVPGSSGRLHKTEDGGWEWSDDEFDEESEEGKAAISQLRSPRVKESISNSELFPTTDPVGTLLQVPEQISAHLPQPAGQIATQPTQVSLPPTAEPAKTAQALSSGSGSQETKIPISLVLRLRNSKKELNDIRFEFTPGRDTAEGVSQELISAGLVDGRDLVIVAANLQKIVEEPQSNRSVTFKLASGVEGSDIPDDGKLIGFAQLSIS
The note with it: OSR1; 1 uM; read-out: Percent Control (%). The essentials:
(§1)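 Activity was called for kinases showing % control under 35, calculated from compound signal relative to positive and negative controls. Each compound screened at 1 uM against the DiscoverX scanMAX panel.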

Experiment [2] concerns the target T2, scanMAX Kinase assay panel (Homo sapiens, UniProt Q16512).
T2 construct: purchased DiscoverX
The note with it: PKN1; 1 uM; read-out: Percent Control (%). The essentials:
as §1

Experiment [3] has as its target T3, scanMAX Kinase assay panel (Homo sapiens, UniProt Q13705).
T3 construct: purchased DiscoverX
The following applies: ACVR2B; 1 uM; read-out: Percent Control (%). The essentials: as §1

Experiment [4] has as its target T4, scanMAX Kinase assay panel (Homo sapiens, UniProt Q9BWU1).
T4 construct: purchased DiscoverX
The note with it: CDK11; 1 uM; read-out: Percent Control (%). The essentials:
as §1

In experiment [5] the target is T5, scanMAX Kinase assay panel (Homo sapiens, UniProt P07948).
T5 construct: purchased DiscoverX
T5 sequence (P07948 whole entry): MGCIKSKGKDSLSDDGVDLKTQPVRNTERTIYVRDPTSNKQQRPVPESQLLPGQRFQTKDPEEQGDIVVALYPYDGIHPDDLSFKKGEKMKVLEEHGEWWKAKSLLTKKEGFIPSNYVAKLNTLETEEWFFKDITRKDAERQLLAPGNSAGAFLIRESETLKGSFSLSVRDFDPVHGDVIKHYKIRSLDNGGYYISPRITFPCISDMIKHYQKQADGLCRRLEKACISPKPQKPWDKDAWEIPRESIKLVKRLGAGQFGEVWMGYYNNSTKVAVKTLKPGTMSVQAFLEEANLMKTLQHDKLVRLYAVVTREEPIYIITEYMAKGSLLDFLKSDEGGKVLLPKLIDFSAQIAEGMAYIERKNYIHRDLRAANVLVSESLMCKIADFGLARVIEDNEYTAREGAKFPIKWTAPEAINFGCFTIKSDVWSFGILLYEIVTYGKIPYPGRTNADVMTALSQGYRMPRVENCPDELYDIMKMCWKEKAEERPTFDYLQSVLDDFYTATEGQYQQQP
The following applies: LYN; 1 uM; read-out: Percent Control (%). The essentials: as §1

For experiment [6], the target named is T6, scanMAX Kinase assay panel (Homo sapiens, UniProt Q9BXA7).
T6 construct: purchased DiscoverX
T6 sequence (Q9BXA7 1-367): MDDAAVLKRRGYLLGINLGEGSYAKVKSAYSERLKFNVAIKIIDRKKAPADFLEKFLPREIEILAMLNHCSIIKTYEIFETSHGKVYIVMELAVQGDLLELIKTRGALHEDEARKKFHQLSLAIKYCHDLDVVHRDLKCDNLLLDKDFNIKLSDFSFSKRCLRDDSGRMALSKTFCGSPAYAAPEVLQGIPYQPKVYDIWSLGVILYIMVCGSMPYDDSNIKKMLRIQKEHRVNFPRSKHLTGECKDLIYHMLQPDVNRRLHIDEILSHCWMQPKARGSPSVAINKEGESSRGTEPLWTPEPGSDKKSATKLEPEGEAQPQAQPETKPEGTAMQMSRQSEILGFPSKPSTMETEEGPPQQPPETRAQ
The note with it: TSSK1B; 1 uM; read-out: Percent Control (%). The essentials: as §1

The target of experiment [7] is T7, scanMAX Kinase assay panel (Homo sapiens, UniProt Q9H3Y6).
T7 construct: purchased DiscoverX
T7 sequence (Q9H3Y6 whole entry): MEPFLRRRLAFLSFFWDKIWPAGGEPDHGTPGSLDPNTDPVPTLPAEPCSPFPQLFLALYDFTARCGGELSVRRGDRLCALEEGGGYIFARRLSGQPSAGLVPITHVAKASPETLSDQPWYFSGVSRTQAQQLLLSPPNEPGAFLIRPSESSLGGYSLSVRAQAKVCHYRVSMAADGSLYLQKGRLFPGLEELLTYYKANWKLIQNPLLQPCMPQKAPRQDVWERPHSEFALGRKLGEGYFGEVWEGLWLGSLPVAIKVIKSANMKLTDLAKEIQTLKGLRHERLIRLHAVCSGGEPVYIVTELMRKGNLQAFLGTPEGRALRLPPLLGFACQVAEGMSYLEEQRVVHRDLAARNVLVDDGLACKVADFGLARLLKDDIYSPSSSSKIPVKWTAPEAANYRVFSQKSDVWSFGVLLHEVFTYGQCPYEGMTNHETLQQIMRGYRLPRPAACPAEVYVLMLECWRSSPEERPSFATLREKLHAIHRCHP
The following applies: SRMS; 1 uM; read-out: Percent Control (%). The method, boiled down: as §1

The target in experiment [8] is T8, scanMAX Kinase assay panel (Homo sapiens, UniProt P36888, D835H).
T8 construct: purchased DiscoverX
T8 sequence (P36888 27-993 D835H): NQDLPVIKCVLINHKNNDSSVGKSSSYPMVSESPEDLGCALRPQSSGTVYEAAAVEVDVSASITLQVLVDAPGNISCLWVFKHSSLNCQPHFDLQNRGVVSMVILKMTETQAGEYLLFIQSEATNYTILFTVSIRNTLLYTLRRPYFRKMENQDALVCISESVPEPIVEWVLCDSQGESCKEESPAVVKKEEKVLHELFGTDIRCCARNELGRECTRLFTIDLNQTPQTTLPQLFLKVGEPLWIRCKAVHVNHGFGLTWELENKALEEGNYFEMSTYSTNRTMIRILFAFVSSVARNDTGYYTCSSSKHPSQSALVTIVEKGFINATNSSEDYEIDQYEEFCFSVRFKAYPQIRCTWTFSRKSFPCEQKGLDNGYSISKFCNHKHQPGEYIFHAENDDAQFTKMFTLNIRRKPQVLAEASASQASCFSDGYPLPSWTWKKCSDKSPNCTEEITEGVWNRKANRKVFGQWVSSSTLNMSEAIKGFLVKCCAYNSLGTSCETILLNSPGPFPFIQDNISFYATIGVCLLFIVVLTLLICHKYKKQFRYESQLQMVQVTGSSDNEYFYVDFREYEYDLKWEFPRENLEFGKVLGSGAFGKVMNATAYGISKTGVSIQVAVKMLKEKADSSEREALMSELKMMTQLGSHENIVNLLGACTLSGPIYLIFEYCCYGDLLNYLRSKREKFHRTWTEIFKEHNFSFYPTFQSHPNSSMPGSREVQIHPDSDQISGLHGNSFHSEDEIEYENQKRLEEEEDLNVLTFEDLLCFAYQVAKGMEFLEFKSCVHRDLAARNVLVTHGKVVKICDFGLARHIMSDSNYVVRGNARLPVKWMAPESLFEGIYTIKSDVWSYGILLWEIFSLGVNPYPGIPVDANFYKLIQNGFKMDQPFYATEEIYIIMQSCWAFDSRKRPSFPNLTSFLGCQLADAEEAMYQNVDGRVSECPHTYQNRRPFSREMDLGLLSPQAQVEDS
The following applies: FLT3 (D835H); 1 uM; read-out: Percent Control (%). The method, boiled down: as §1

T4 sequence (Q9BWU1 whole entry): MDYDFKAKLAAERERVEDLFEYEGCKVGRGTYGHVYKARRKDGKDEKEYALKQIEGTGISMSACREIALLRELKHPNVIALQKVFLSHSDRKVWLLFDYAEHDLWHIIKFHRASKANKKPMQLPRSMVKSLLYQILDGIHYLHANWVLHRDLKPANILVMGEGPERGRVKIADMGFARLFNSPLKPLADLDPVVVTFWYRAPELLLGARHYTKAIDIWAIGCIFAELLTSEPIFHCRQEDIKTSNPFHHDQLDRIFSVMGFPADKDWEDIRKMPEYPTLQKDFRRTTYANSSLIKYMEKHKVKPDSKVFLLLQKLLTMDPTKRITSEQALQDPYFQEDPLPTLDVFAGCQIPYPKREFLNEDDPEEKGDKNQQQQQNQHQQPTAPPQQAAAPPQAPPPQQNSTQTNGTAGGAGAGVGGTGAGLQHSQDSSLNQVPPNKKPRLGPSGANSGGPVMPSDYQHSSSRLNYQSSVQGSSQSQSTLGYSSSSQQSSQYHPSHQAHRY
T2 sequence (Q16512 whole entry): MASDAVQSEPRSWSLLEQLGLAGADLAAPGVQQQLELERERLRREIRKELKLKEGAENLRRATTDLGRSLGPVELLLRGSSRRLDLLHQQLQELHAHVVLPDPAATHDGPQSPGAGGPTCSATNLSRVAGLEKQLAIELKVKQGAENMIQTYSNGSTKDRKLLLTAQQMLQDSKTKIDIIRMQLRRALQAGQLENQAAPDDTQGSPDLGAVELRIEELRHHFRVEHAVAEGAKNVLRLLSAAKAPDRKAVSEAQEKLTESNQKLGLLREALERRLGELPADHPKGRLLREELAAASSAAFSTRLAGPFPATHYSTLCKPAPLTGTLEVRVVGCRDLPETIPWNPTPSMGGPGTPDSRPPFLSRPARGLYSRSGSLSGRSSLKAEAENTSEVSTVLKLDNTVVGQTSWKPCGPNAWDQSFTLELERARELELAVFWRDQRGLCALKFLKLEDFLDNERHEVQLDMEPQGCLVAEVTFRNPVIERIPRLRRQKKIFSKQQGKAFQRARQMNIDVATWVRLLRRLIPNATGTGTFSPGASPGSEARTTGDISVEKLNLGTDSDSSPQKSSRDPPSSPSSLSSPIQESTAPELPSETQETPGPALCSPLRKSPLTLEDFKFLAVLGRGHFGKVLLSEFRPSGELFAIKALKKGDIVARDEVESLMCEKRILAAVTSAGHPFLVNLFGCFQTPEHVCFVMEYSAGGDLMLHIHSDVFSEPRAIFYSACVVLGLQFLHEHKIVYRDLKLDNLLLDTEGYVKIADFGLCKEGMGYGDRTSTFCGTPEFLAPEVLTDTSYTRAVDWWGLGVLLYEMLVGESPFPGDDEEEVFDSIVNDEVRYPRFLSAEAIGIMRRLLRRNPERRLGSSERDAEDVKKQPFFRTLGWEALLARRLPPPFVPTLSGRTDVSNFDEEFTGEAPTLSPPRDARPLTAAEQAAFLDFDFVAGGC
T3 sequence (Q13705 19-512): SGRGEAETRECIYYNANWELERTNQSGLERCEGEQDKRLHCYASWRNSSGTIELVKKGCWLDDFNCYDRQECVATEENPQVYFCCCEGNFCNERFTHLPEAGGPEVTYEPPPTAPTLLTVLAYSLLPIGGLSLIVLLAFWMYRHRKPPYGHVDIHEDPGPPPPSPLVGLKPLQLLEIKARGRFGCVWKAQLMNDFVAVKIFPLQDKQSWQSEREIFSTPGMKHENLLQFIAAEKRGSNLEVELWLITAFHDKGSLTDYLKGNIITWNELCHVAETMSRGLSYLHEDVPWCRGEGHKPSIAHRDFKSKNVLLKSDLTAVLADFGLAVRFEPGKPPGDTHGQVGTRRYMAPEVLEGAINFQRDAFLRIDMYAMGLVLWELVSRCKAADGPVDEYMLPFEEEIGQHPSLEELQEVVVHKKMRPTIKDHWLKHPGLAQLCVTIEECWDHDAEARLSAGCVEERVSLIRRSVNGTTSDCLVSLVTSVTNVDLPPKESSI

Consider `Cc1ccc(C(=O)Nc2ccc(CN3CCN(C)CC3)c(C(F)(F)F)c2)cc1C#Cc1cnc2c(Nc3cnn(C)c3)cccn12` [Example 1, 4-methyl-3-((8-((1-methyl-1H-pyrazol-4-yl)amino)imidazo[1,2-a]pyridin-3-yl)ethynyl)-N-(4-((4-methylpiperazin-1-yl)methyl)-3-(trifluoromethyl)phenyl)benzamide], for which the remaining binding at 1 µM in experiment [1] worked out at 88%; in experiment [2], 78%; in experiment [3] it was 93%; in experiment [4], 0%; in experiment [5] it was 0%; in experiment [6], 95%. Besides, the remaining binding at 1 µM in experiment [7] is 8%; in experiment [8], 1%.
Regarding `Cc1cn(-c2cc(NC(=O)c3ccc(C)c(C#Cc4cnc5c(Nc6cnn(C)c6)cccn45)c3)cc(C(F)(F)F)c2)cn1` [Example 12, 4-methyl-N-(3-(4-methyl-1H-imidazol-1-yl)-5-(trifluoromethyl)phenyl)-3-((8-((1-methyl-1H-pyrazol-4-yl)amino)imidazo[1,2-a]pyridin-3-yl)ethynyl)benzamide], the remaining binding at 1 µM in experiment [1] was 100%; in experiment [2] it was 82%; in experiment [3], 96%; in experiment [4], 19%; in experiment [5], 3%; in experiment [6], 61%. The remaining binding at 1 µM in experiment [7] was 75%; in experiment [8] it was 10%.
In the case of `Cc1ccc(NC(=O)C2(C(=O)Nc3ccc(F)cc3)CC2)cc1C#Cc1cnc2c(Nc3cnn(C(C)C)c3)cccn12` [Example 78], the remaining binding at 1 µM stood at 100% in experiment [1]; 83% in experiment [2]; 94% in experiment [3]; 100% in experiment [4]; 84% in experiment [5]; 100% in experiment [6]. Moreover, the remaining binding at 1 µM in experiment [7] stood at 94%; in experiment [8], 95%.
